Measurements taken from ChEMBL document CHEMBL1140028, “Heterocyclic alpha-helix mimetics for targeting protein-protein interactions” (Bioorg Med Chem Lett, 2007).
Active and inactive are the calls of the source. The rule behind the calls is not given here.

These compounds were tested on Bcl-XL (Homo sapiens) (assay: Binding affinity to Bcl-XL by fluorescence polarization assay).

Row | Activity | SMILES
1 | Active | CCC(C)C1CN(C(=O)c2cc(Cc3ccccc3)c(-c3nc(CC(C)C)co3)nn2)CCN1C (centres undefined)
2 | Active | CC(C)c1coc(-c2cc(CC3CCCCC3)c(-c3nc(C(C)C)co3)nn2)n1
3 | Active | CC(C)Cc1cc(C(=O)N2CCC[C@@H](OCc3ccccc3)C2)nnc1-c1nc(C(C)C)co1
4 | Active | CC(C)Cc1cc(-c2nc(C(C)C)co2)nnc1-c1nc(C(C)C)co1
